Patent publication US20250304700A1, “ANTI-BLOOD DENDRITIC CELL ANTIGEN 2 ANTIBODIES AND USES THEREOF” (Biogen MA Inc., priority 2012, published 2025)
Several values for one entry are separate records, joined by “and”; a condition that tells them apart may be missing. Equal values may be shown once. Entries after “also recorded” stand apart in the source; their conditions may differ.

Assays:
[1] = test system: type I IFN transcription in purified pDCs; assay: Q-PCR of type I IFN genes in CpG-A stimulated purified pDCs; type: cell-based, human; conditions: 5 μM CPG-A, 18 hours
Description: pDCs were purified using a two-step magnetic bead separation procedure (MACS kit, Miltenyi Biotec). […] Total assay volume was 200 μl/well. Plates were incubated for 18 hours at 37° C., and RNA was extracted from cells using Trizol reagent (Invitrogen corporation) and further purified using an RNeasy mini column (Qiagen Sciences). All primers and probes were purchased from Applied Biosystems Inc. Relative transcript quantities were determined for each sample by comparison to the oligonucleotide standard curve using Sequence Detection Software (Applied Biosystems Inc.) and normalized to a control (GAPDH).

[2] = test system: TLR9-induced IFNα production in whole blood; assay: Pre-incubation (internalization) before TLR9 stimulation, IFNα in whole blood; type: cell-based, human; conditions: up to 9 hours pre-incubation, then 200 μg/mL CpG-A for 18 hours
Description: The following experiment was conducted to ascertain whether BIIB059-mediated receptor internalization affected IFN inhibition. […] At each time point after pre-incubation, cells were challenged with 200 μg/mL CpGA and incubated for an additional 18 hours at 37° C. Supernatants were collected for use in IFNα ELISA assays (PBL InterferonSource). The assays were performed according to the manufacturer's protocol. FIG. 19B is a representative experiment of 3 independent experiments performed. […] In addition, we have previously shown that bivalent binding was necessary for anti-BDCA2 mediated IFN inhibition.
At each time point after pre-incubation, cells were stimulated with 200 μg/mL TLR9 ligand (CpG-A) and incubated for an additional 18 hours at 37° C. Supernatants were collected for use in IFNα ELISA assays (PBL InterferonSource).

[3] = test system: Sm/RNP immune complexes-induced cytokines by pDCs; assay: Cytokines from Sm/RNP immune complex stimulated purified pDCs; type: cell-based, human; conditions: 10 μg/mL BIIB059, 18 hours
Description: Specifically, Sm/RNP immune complexes (IC) were pre-formed by mixing sm-RNP from calf thymus and anti-RNP antibodies purified form sera of SLE patients for 1 h in serum-free medium. pDCs from human healthy donors were isolated using a two-step magnetic bead separation procedure (MACS kit, Miltenyi Biotec). […] The plates containing pDCs were incubated for 18 hours at 37° C. and supernatants collected for use in ELISA or multiplex assays to measure concentrations of inflammatory cytokines and chemokines.

[4] = test system: cell surface BDCA2 on pDCs; assay: BIIB059 titration in cynomolgus whole blood, anti-human IgG PE detection; type: binding, cynomolgus monkey; conditions: all cynomolgus monkeys
Chain of cell surface BDCA2 on pDCs (as listed by the source): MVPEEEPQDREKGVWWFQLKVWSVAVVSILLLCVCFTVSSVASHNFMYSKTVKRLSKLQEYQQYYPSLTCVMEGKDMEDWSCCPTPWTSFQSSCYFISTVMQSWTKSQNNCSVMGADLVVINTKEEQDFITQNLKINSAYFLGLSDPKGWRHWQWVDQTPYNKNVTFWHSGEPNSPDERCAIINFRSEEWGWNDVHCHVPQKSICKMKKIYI
Description: The maximal values were taken from the values at the plateau in each assay (FIGS. 24 and 25).
Whole blood was drawn from twelve cynomolgus monkeys, once a week for three weeks total. […] MFI of PE was calculated with FlowJo software, and EC50 curves were generated in GraphPad Prism software.

BDCA2 receptor on pDCs = assay: BDCA2 and bound BIIB059 on pDC surface after dosing cynomolgus monkeys; type: in vivo, cynomolgus monkey
Chain of BDCA2 receptor on pDCs (as listed by the source): as above
Excerpt: At the same time point (1 hr), some free BDCA2 was observed (13%, 74%, 72% of baseline MFI).
EC10-50-90 curves were generated in GraphPad Prism software using a four-parameter fit.

[5] = test system: type I IFN subtype transcription in pDCs; assay: qPCR of type I IFN subtypes in Sm/RNP IC stimulated pDCs; type: cell-based, human; conditions: 10 μg/mL BIIB059, 16 hours
Description: Sm/RNP immune complexes (IC) were pre-formed by mixing sm-RNP from calf thymus and anti-RNP antibodies purified from sera of SLE patients for 30 minutes in serum-free medium. pDCs from human healthy donors were isolated using a two-step magnetic bead separation procedure (MACS kit, Miltenyi Biotec). […] The plates containing pDC were incubated for 16 hours at 37° C. and 5% CO2. pDC cells were collected and RNA from pDC was isolated for evaluation in qPCR reaction.

[6] = test system: TLR9-induced IFNα production by PBMC; assay: PBMC assay, TLR9-induced IFNα production; type: cell-based, human; conditions: 1 or 5 μM CpG-A, 18 hours
Description: PBMCs from heparinized venous blood of healthy donors were isolated by discontinuous gradient centrifugation over Ficoll, washed in PBS and re-suspended in complete culture medium (RPMI with 3% FBS). […] The plates were incubated overnight (18 hours) at 37° C., and the supernatants were collected for evaluation in IFNα ELISA assays (PBL InterferonSource). The assays were performed according to the manufacturer's protocol.
pDCs are the major producers of IFN in response to TLR7 and TLR9 stimulation. pDCs can produce thousand-fold more IFN than any other cell type. […] The plates were incubated overnight (18 hours) at 37° C. and 5% CO2. Supernatants were collected for evaluation in IFNα ELISA assays.

circulating pDCs = assay: Circulating pDC frequency after dosing cynomolgus monkeys; type: in vivo, cynomolgus monkey
Excerpt: Nine of these twelve cynomolgus monkeys were divided into 3 groups (3/group), and randomized to include equal representation of BDCA2 density and percent pDC in each group. […] Flow cytometry was used to identify circulating pDCs in the whole blood as CD20-CD14-CD123+HLA-DR+, and the pDC frequency (on log-scale) at each time point was graphed in R software (FIG. 54). A linear mixed effects model was fitted to log (pDC) frequencies using random intercepts for cynomolgus monkeys and fixed effects for dose group and time period: 1 hour, 6 hours, 1-27 days, and greater than 28 days. To assess whether pDC changed among different dose groups at different time periods, a preliminary model also included the interaction terms for dose group and different time periods.
The pDC frequency (on log-scale) at each time point was graphed in R software (FIG. 56). A linear mixed effects model was fitted, using continuous time and time at 1 hour as fixed factors, and cynomolgus monkeys as random intercepts.

## BIIB059: humanized IgG1 anti-BDCA2 antibody, mature heavy chain SEQ ID NO: 4 and mature light chain SEQ ID NO: 3
[1]
  transcription of type I IFNs: inhibited transcription of all type I IFNs tested
[2]
  effect of pre-incubation on IFNα inhibition: did not affect IFN inhibition; also recorded: did not alter the ability of BIIB059 to inhibit
[3]
  Sm/RNP immune complexes-induced IFNα, TNFα and IL-6: potently inhibited
  chemokines induced by Sm/RNP immune complexes (CCL3, CCL4): also inhibited
[4]
  concentration that saturates BDCA2 receptor binding: 10 µg/mL
BDCA2 receptor on pDCs; IV 10 mg/kg or 1 mg/kg, from 1 hour post injection
  BIIB059 on the pDC surface: no BIIB059 was detected on the surface
BDCA2 receptor on pDCs; IV 10 mg/kg or 1 mg/kg, through 38 days, except monkey 5
  free BDCA2 (BIIB059-A647 staining): no free BDCA2
BDCA2 receptor on pDCs; IV 10 mg/kg, monkeys 3, 8, 10, 10 mg/kg
  EC10 (ug/mL), internalization of BDCA2: 0.100 µg/mL and 0.095 µg/mL and 0.114 µg/mL
BDCA2 receptor on pDCs; SC 0.2 mg/kg
  free BDCA2 receptor over time: no free BDCA2 receptor was detected until day 14
BDCA2 receptor on pDCs; SC 0.2 mg/kg, at 1 hour, disappeared by 6 hours
  BIIB059 on the pDC surface: briefly observed on the surface of pDCs
BDCA2 receptor on pDCs; mean of all dosed monkeys
  EC10 (ug/mL), Mean: 0.064 µg/mL
  EC90 (ug/mL), Mean: 0.359 µg/mL
[5]
  transcript level of type I IFN subtypes: inhibited the transcript level of all type I IFN subtypes tested
[6]; PBMC from SLE patients
  average IC50, inhibition of TLR9-induced IFNα production: 0.03 ± 0.01 µg/mL
[6]; PBMC from healthy donors
  average IC50, inhibition of TLR9-induced IFNα production: 0.04 ± 0.05 µg/mL
Circulating pDCs; Group: BIIB059 1 mg/kg IV v. vehicle
  effect est., log % circulating pDC: 0.49
Circulating pDCs; SC 0.2 mg/kg, time (continuous)
  effect est., log % circulating pDC: 0.01
Circulating pDCs; SC 0.2 mg/kg, time: 1 hr v. others
  effect est., log % circulating pDC: −0.78
Circulating pDCs; tested doses
  depletion of pDCs in the blood, in words: does not mediate a sustained depletion of pDCs
